Experimental findings from patent publication US20170052177A1, “COMPETITION ASSAY” (PharmaDiagnostics NV, priority 2014, published 2017) are described below.

Ends that are not written are not given here.

One assay addresses Neutravidin (Gallus gallus, UniProt P02701). Nature of the assay: LSPR competition assay: Neutravidin pre-incubated with HABA or biotin, then biotin-GNR conjugate. Type of assay: binding. Particulars: for ΔRU as a function of the HABA and biotin concentration: fixed Neutravidin, biotin-GNR conjugate, final DMSO 5 w %, increasing concentration of added compound (FIG. 2). From the text:
Gold nanorods (GNRs) which are coated with mercaptoundecanoic acid (MUDA) were provided in suspension. The MUDA-coated GNRs provide an outer layer of carboxyl functional groups on their surface. For the conjugation of biotin to the GNRs, a biotin derivative (amino-PEG4-biotin) was used containing a polyethyleneglycol linker (4 monomers) having an amino functional group. More particularly, the carboxyl groups on the GNRs were activated using ethyl(dimethylaminopropyl) carbodiimide (EDC) and N-hydroxysuccinimide (NHS). Then, amino-PEG4-biotin was coupled via its amino functional group to the carboxyl groups provided on the GNRs, thereby providing a biotin-GNR conjugate. Potentially remaining unreacted carboxylic acid groups were blocked via reaction with 2-(2-aminoethoxy)ethanol (AEE). The biotin-GNR conjugate was purified from unreacted EDC, NHS, amino-PEG4-biotin and AEE by buffer exchange using a centrifugal ultrafiltration device.
The determination of the inhibition of the interaction between HABA and Neutravidin according to the methods described herein involves contacting the biotin-GNR conjugate with Neutravidin. The optimal amount of Neutravidin to be contacted with the conjugate was determined via titration. More particularly, a fixed amount of biotin-GNR was incubated with various concentrations of Neutravidin, and the absorbance spectra after incubation was recorded. ΔRU was calculated and plotted as a function of the Neutravidin concentration (FIG. 1). Suitable Neutravidin concentrations are determined as those concentrations which are sufficiently high to provide a detectable signal (ΔRU), provided that the signal is not in the plateau of the dose-response curve. Optimal concentrations are those providing a signal in the linear response range.
A fixed amount of Neutravidin was pre-incubated with different concentrations of HABA and biotin, followed by incubation with a fixed amount of biotin-GNR conjugate. HABA was provided as a solution in DMSO. […] The relative amounts of biotin-GNR and Neutravidin used are determined via titration as described above (A2). […]

For another assay, the target named is MDM2 (Homo sapiens, UniProt Q00987). Nature of the assay: LSPR competition assay: MDM2 pre-incubated with nutlin-3 or p53, then p53-GNR conjugate. The assay is classed as binding. To be noted: fixed MDM2, p53-GNR conjugate; increasing concentration of added compound (FIGS. 4A and 4B).
Chain of MDM2 (Q00987 whole entry, species assumed): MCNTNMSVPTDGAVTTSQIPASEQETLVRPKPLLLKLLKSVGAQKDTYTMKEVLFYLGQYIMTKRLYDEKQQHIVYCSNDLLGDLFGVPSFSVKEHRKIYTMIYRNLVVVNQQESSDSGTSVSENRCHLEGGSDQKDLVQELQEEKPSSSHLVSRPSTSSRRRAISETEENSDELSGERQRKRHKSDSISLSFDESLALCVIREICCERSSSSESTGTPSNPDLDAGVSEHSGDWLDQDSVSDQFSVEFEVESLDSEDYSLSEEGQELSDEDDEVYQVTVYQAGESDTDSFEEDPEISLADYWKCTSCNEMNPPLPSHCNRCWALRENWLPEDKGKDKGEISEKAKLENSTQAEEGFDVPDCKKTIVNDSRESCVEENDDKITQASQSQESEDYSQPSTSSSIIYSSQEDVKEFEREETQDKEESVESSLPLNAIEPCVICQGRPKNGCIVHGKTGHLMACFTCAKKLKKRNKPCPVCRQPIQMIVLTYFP

Chain of Neutravidin (P02701 25-152): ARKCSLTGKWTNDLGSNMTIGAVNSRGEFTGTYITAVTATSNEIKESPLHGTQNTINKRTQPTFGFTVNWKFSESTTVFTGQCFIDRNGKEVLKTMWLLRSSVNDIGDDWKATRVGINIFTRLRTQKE
Protocol for MDM2: The determination of the inhibition of the interaction between MDM2 and p53 according to the methods described herein involves contacting the p53-GNR conjugate with MDM2. The optimal amount of MDM2 to be contacted with the conjugate was determined via a similar titration experiment as described above for Neutravidin (A2). ΔRU was calculated and plotted as a function of the MDM2 concentration (FIG. 3).

`O=C(O)c1ccccc1N=Nc1ccc(O)cc1` [HABA, (2-(4-hydroxyazobenzene)benzoic acid)]: the “ΔRU as a function of the HABA and biotin concentration” value at Neutravidin is reported as “ΔRU decreases”. In addition, the “relative affinity to Neutravidin” value at Neutravidin (from concentration needed for significant reduction of ΔRU (FIG. 2)) is reported as “lower affinity to Neutravidin than biotin”.

For “p53: p53 peptide (Sequence: CGSGSGSGSGSRFMDYWEGL); p53 protein also known as cellular tumor antigen p53 (also: conjugated to gold nanorods, site not given here)”, in the assay with MDM2, the “ΔRU as a function of the added amount of nutlin-3 and p53” value is reported as “ΔRU decreases”.

As to `O=C(O)CCCC[C@@H]1SC[C@@H]2NC(=O)N[C@@H]21` [biotin], at Neutravidin, the “ΔRU as a function of the HABA and biotin concentration” value is “ΔRU decreases”.
